The subject of series [1] is NCI-H226 cells. Nature of the series: NCI-H226 proliferation assay (Wuxi AppTec). Type of series: cell-based. As to conditions: Homo sapiens, 168 h, 7 days, CellTiter-Glo, top dose 10, 3-fold dilution, 9 doses. The procedure, abridged:
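NCI-H226 cells were seeded at 500 cells/well overnight, then treated with compounds in a 9-point, 3-fold dilution from a top dose of 10 μM, with 0.2% DMSO. Plates were incubated 7 days at 37° C, 5% CO2. Viability was read by CellTiter-Glo luminescence, normalized to DMSO (max) and medium-only (min) controls.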

In series [2] the test system is NCI-H226 cells. Nature of the series: NCI-H226 proliferation assay (in house). It is filed as cell-based. As to conditions: Homo sapiens, 120 h, 5 days, Cell TiterGlo, 20-point 1:2 dilution from 20 μM. The procedure, abridged: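 Viability by CellTiter-Glo luminescence after 5-day compound exposure at 37 °C, 5% CO2. Compounds added 24 h post-seeding (500 cells/well, RPMI 1640 with 10% FBS) as 20-point, 2-fold series from 20 μM final, triplicate wells.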

Series [3] concerns transcriptional activity of TEADs. The series can be described thus: TEAD reporter assay (MCF7 TEAD-LUC reporter cells). As to conditions: Homo sapiens, 24 hours, BrightGlo luminescence. It is filed as cell-based. The gist of the method:
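Luminescence (BrightGlo) was read after 24 h of compound treatment at 37 °C, 5 % CO2. Cells had been seeded at 5,000 per well in DMEM with 10 % FBS and insulin and rested 24 h first. Dosing used 20 points, 1:2 dilution from 20 μM final, triplicates.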

Series [4] relates to IMR32 cells. The series can be described thus: IMR32 cytotoxicity assay. It is filed as cell-based. As to conditions: Homo sapiens, IMR-32, 72 h, 3 days, Cell TiterGlo. The method, then: IMR32 cells were obtained from American Type Culture Collection (ATCC, CCL-127) and cultured in DMEM (Corning, 10-013-CV) supplemented with 10% fetal bovine serum (Gibco, 10438-026) and 1% penicillin-streptomycin (Gibco, 15070063). Cells were trypsinized, resuspended in growth medium, and diluted to a concentrated of 20,000 cells/mL. 1,000 cells, 50 μL of cell suspension, per well were then plated in a white 384-well plate (Corning) and incubated at 37° C., 5% CO2. After 24 hours incubation, 100 nL of test compounds in DMSO, 20-point 1:2 dilution starting from 20 μM (final concentration) in triplicate, were transferred to each well using an Agilent Bravo instrument outfitted with a pintool head. Cells were incubated at 37° C., 5% CO2 for 3 days followed by the addition of 30 μL of Cell TiterGlo (Promega; diluted 1:6 in water) to each well and luminescence values recorded using an EnVision plate reader. […]

Series [5] in a line: Pharmacokinetic studies in mice. It is filed as in vivo, mouse. The following applies: for Vd / clearance / half-life: mouse plasma; for Vd / clearance: intravenous 2 mg/kg in 75% PEG 300+25% D5W; for half-life: intravenous 2 mg/kg, oral 10 mg/kg in 75% PEG 300+25% D5W; for bioavailability: plasma, mouse, oral 10 mg/kg vs intravenous 2 mg/kg in 75% PEG 300+25% D5W. The protocol:
Pharmacokinetic Studies in mice: The plasma pharmacokinetic profiles of representative compounds were evaluated in mouse via intravenous (2 mg/kg in 75% PEG 300+25% D5W solution) and oral (10 mg/kg in 75% PEG 300+25% D5W solution) dosing routes.

Bounds are passed on as bounds.

For the compound `C=CC(=O)N1CCN(c2nccnc2Nc2ccc(OC(F)(F)F)cc2)CC1` [Example 34, 1-(4-(3-((4-(trifluoromethoxy)phenyl)amino)pyrazin-2-yl)piperazin-1-yl)prop-2-en-1-one], the IC50 in series [1] was 0.006 µM; in series [2], 0.007 µM; in series [3], 2 nM; in series [4], more than 10000 nM.

In the case of `C=CC(=O)N1CCN(c2nc(C)cnc2Nc2ccc(C(F)(F)F)cc2)CC1` [Example 112, 1-(4-(6-methyl-3-((4-(trifluoromethyl)phenyl)amino)pyrazin-2-yl)piperazin-1-yl)prop-2-en-1-one], the IC50 in series [1] turned out to be 0.009 µM; in series [2], 0.011 µM; in series [3], 1.8 nM; in series [4], 10000 nM.

For the compound `C=CC(=O)N1CCN(c2nccnc2Nc2ccc(S(F)(F)(F)(F)F)cc2)CC1` [Example 31, 1-(4-(3-((4-(pentafluoro-16-sulfaneyl)phenyl)amino)pyrazin-2-yl)piperazin-1-yl)prop-2-en-1-one], the 50% inhibitory concentration (IC50) in series [1] was 0.018 µM; in series [2], 0.0155 µM; in series [3] it was 2.06 nM; in series [4], more than 5000 nM.

Compound `C=CC(=O)N1CCC(c2nccnc2Oc2ccc(C(F)(F)F)nc2)CC1` [Example 79, 1-(4-(3-((6-(trifluoromethyl)pyridin-3-yl)oxy)pyrazin-2-yl)piperidin-1-yl)prop-2-en-1-one] displayed a half-inhibitory concentration (IC50) in series [1] of 0.028 µM. It took 0.017 µM to reach half-maximal inhibition in series [2] (IC50). For the same compound, in series [3], the IC50 was determined as 2 nM. Besides, in series [5], the distribution volume (Vd) is 1.73 L/kg, the clearance amounted to 47.3 mL/min/kg, the half-life is 24 min and the bioavailability worked out at 109%.

Compound `C=CC(=O)N1CCN(c2nccnc2Nc2ccc(C(F)(F)F)cn2)CC1` [Example 39, 1-(4-(3-((5-(trifluoromethyl)pyridin-2-yl)amino)pyrazin-2-yl)piperazin-1-yl)prop-2-en-1-one] registered an IC50 in series [1] of 0.015 µM. In series [2], this compound had a half-inhibitory concentration (IC50) of 0.016 µM. This compound also returned an IC50 in series [3] of 5 nM. Also, the IC50 in series [4] is more than 20000 nM. Also, in series [5], the Vd stood at 1.8 L/kg, the clearance is 39.5 mL/min/kg, the half-life was 30 min and the bioavailability amounted to 90%.

Take `C=CC(=O)N1CCN(c2nccnc2Nc2ccc(C(F)(F)F)cc2)CC1` [Compound 1, 1-(4-(3-((4-(trifluoromethyl)phenyl)amino)pyrazin-2-yl)piperazin-1-yl)prop-2-en-1-one]: the IC50 is 0.0143 µM in series [1], 0.0166 µM in series [2], 1.8 nM in series [3] and more than 10000 nM in series [4]. This compound yielded a Vd in series [5] of 7 L/kg. This compound came in with a clearance in series [5] of 42.2 mL/min/kg. In addition, the half-life in series [5] was 126 min. The bioavailability in series [5] stood at 94.4%.

For the compound `C=CC(=O)N1CCN(c2nccnc2Oc2ccc(C(F)(F)F)cn2)CC1` [Example 73, 1-(4-(3-((5-(trifluoromethyl)pyridin-2-yl)oxy)pyrazin-2-yl)piperazin-1-yl)prop-2-en-1-one], the half-inhibitory concentration (IC50) was 0.032 µM in series [1], 0.025 µM in series [2], 3 nM in series [3] and more than 20000 nM in series [4].

Turning to `C=CC(=O)N1CCC(c2nccnc2Nc2ccc(C(F)(F)F)cc2)CC1` [Example 26, 1-[4-(3-{[4-(trifluoromethyl)phenyl]amino}pyrazin-2-yl)piperidin-1-yl]prop-2-en-1-one], the IC50 in series [1] was found to be 0.02 µM; in series [2], 0.009 µM; in series [3], 2 nM; in series [4] it was 10000 nM.

Consider `C=CC(=O)N1CCN(c2nccnc2N2CC(c3ccccc3)C2)CC1` [Example 106, 1-(4-(3-(3-phenylazetidin-1-yl)pyrazin-2-yl)piperazin-1-yl)prop-2-en-1-one], for which the IC50 was 20 µM in series [2], 7 nM in series [3] and more than 20000 nM in series [4].

As for `C=CC(=O)N1CC=C(c2nccnc2Nc2ccc(C(F)(F)F)cc2)CC1` [Example 25, 1-[4-(3-{[4-(trifluoromethyl)phenyl]amino}pyrazin-2-yl)-3,6-dihydro-2H-pyridin-1-yl]prop-2-en-1-one], the values for the half-maximal inhibitory concentration (IC50) in series [2], in series [3] and in series [4] were 0.006 µM, 2.1 nM and 15500 nM, respectively.

`C=CC(=O)N1CCN(c2cccnc2Nc2ccc(C(F)(F)F)cc2)CC1` [Example 143, 1-[4-(2-{[4-(trifluoromethyl)phenyl]amino}pyridin-3-yl)piperazin-1-yl]prop-2-en-1-one]: the results for the IC50 in series [2], in series [3] and in series [4] were 0.017 µM, 5 nM and 20000 nM, respectively.

As to `C=CC(=O)N1CCN(c2nccnc2Nc2ccc(C(F)(F)F)cc2)C(C)C1` (stereo not shown) [Example 24, 1-(3-methyl-4-(3-((4-(trifluoromethyl)phenyl)amino)pyrazin-2-yl)piperazin-1-yl)prop-2-en-1-one], the IC50 in series [2] was found to be 0.0199 µM; in series [3] it was 41 nM; in series [4] it was 2500 nM.

For `O=C(C1CO1)N1CCN(c2nccnc2Nc2ccc(C(F)(F)F)cc2)CC1` (stereo not shown) [Example 172, oxiran-2-yl(4-(3-((4-(trifluoromethyl)phenyl)amino)pyrazin-2-yl)piperazin-1-yl)methanone], the IC50 stood at 1.4 µM in series [2], 3.2 nM in series [3] and 10000 nM in series [4].

Take `C=CC(=O)N1CCN(c2nccnc2-c2ccc(C(F)(F)F)cc2)CC1` [Example 28, 1-(4-(3-(4-(trifluoromethyl)phenyl)pyrazin-2-yl)piperazin-1-yl)prop-2-en-1-one]: the IC50 in series [2] was 0.0904 µM; in series [3] it was 11.4 nM; in series [4], more than 10000 nM.

As to `C#CCN(C)C/C=C/C(=O)N1CCN(c2nccnc2Nc2ccc(C(F)(F)F)cc2)CC1` [Example 179, (E)-4-(methyl(prop-2-yn-1-yl)amino)-1-(4-(3-((4-(trifluoromethyl)phenyl)amino)pyrazin-2-yl)piperazin-1-yl)but-2-en-1-one], the IC50 in series [2] was 2.48 µM; in series [3], more than 10000 nM; in series [4] it was more than 20000 nM.

In the case of `N#CCC(=O)N1CCN(c2nccnc2Nc2ccc(C(F)(F)F)cc2)CC1` [Example 171, 3-oxo-3-(4-(3-((4-(trifluoromethyl)phenyl)amino)pyrazin-2-yl)piperazin-1-yl)propanenitrile], the figures for the half-inhibitory concentration (IC50) in series [2], in series [3] and in series [4] were 5.25 µM, 2220 nM and more than 20000 nM, respectively.

The values are drawn from US20250206722A1, “SMALL MOLECULE INHIBITORS OF TEA DOMAIN FAMILY MEMBERS” (The Scripps Research Institute, priority 2022, published 2025).
